These results are taken from US20240287138A1, “CYCLIC PEPTIDES FOR INHIBITING TNF RECEPTOR 1 ACTIVITY” (Merck Sharp & Dohme LLC, priority 2023, published 2024).

A word on the IC50: it is the concentration at which inhibition is half-maximal. High values mean lower potency, low ones higher potency. What is called Kd is a measure of binding affinity in units of concentration.

Numbered stars: 1 amine (or outer) side, 2 acyl side, 3 side chain; on linkers, the order of the positions; unused ones are H or OH. Bridge positions count the residues as written; N and C are the ends. Square brackets hold non-standard residues; d marks the D form. Peptide text beside a SMILES is read from it. Trp(βS-Me,7-OMe) = COc1cccc2c([C@H](C)[C@H](N)C(=O)O)c[nH]c12; Trp(βS-Me) = C[C@@H](c1c[nH]c2ccccc12)[C@H](N)C(=O)O; Phe(4-SO3H) = N[C@@H](Cc1ccc(S(=O)(=O)O)cc1)C(=O)O; X69 = O=C(O)C12CC(C[C@H](N[*:1])C(=O)[*:2])(C1)C2; Trp(7-Br) = N[C@@H](Cc1c[nH]c2c(Br)cccc12)C(=O)O; Trp(7-CN) = N#Cc1cccc2c(C[C@H](N)C(=O)O)c[nH]c12; Trp(7-Cl) = N[C@@H](Cc1c[nH]c2c(Cl)cccc12)C(=O)O; Phe(3-CONH2) = NC(=O)c1cccc(C[C@H](N)C(=O)O)c1; Phe(4-CONH2) = NC(=O)c1ccc(C[C@H](N)C(=O)O)cc1; Phe(4-COOH) = N[C@@H](Cc1ccc(C(=O)O)cc1)C(=O)O; Trp(7-aza) = N[C@@H](Cc1c[nH]c2ncccc12)C(=O)O; Phe(4-CH2NH2) = NCc1ccc(C[C@H](N)C(=O)O)cc1; Pip(5R-OH) = O=C(O)[C@@H]1CC[C@@H](O)CN1; αMeW = C[C@](N)(Cc1c[nH]c2ccccc12)C(=O)O; Lys(N3) = [N-]=[N+]=NCCCC[C@H](N)C(=O)O; X1 = O=C([C@@H]1CC[C@H](N[*:1])C1)[*:2]; 2Nal = N[C@@H](Cc1ccc2ccccc2c1)C(=O)O; X65 = O=C(CN(CC1(O)CC1)[*:1])[*:2]; Pip(4-aza) = O=C(O)[C@@H]1CNCCN1; 4Pal = N[C@@H](Cc1ccncc1)C(=O)O; NMeE = CN[C@@H](CCC(=O)O)C(=O)O; dHyp = O=C(O)[C@H]1C[C@H](O)CN1; Ahp(2) = CCCCC[C@H](N)C(=O)O; Pip = O=C(O)[C@@H]1CCCCN1; αMeS = C[C@](N)(CO)C(=O)O; Nle = CCCC[C@H](N)C(=O)O; dNMeA = CN[C@H](C)C(=O)O; Dap = NC[C@H](N)C(=O)O; Sar = CNCC(=O)O

The target of this assay is T1, human soluble TNFR1 (sTNFR1) (Homo sapiens, UniProt P19438).
T1 construct: made in house; host or cells: Sf21 (baculovirus)
T1 sequence (P19438 with tags, fused parts or gaps): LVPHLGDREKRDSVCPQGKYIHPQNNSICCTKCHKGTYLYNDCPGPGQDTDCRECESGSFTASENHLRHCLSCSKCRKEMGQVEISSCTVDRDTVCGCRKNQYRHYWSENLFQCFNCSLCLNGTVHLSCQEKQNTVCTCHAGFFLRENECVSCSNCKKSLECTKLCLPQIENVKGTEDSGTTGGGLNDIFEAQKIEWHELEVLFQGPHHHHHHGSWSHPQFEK
Nature of the assay: Human sTNFR1-peptide displacement assay (LanthaScreen Eu TR-FRET binding assay). The method, then:
A. Procedure for Human sTNFR1-Peptide Displacement Assay
The affinity was determined using LanthaScreen Eu-based time-resolved fluorescence resonance energy transfer (TR-FRET)-based binding assay.
A TR-FRET assay measuring the displacement of biotinylated peptide SEQ ID NO. 1 from human soluble TNFR1 (sTNFR1) in a pre-formed complex by a macrocyclic peptide yields the affinity (Kd^app) of the cyclic peptide for sTNFR1. The reagents for the assay include: the C′-terminally 6His-tagged sTNFR1 (residues 1-211) protein purified from a Sf21 baculovirus expression system, the biotin-tagged B0372 peptide described in section “Preparation of Final Compounds”, part E, the LanthaScreen™ anti-His Tag Europium donor (Life Technologies Corporation (San Diego, CA), cat. #PV5597), and a streptavidin-conjugate Alexa Fluor™ 647 acceptor (Invitrogen (Waltham, MA), cat. #S32357). Time-resolved TR-FRET is achieved when sTNFR1 is bound to biotinylated peptide SEQ ID NO. 1 through coupling of the donor and acceptor FRET pair.
100 nM biotinylated peptide SEQ ID NO. […] 100 nM biotinylated peptide SEQ ID NO. 1 was chosen as it reflects the ˜Kd for this complex. After 30 min at ambient temperature, each test peptide (2 mM stock in DMSO) is titrated in a 20 point, ˜3-fold discrete dose-response using an acoustic-dispense liquid handler. Specifically, 80 nL of peptide/DMSO is transferred into a ProxiPlate-384 Plus 384-well assay plate (PerkinElmer, cat. #6008289). To this plate, 8 μL of the previously formed sTNFR 1-biotinylated peptide SEQ ID NO. 1 complex is added and allowed to reach binding equilibrium with the test peptide at ambient temperature for 90 min.
The TR-FRET signal is measured with the following EnVision® settings: excitation laser at 337 nm; emission1=615 nm, emission2=665 nm, LANCE/DELFIA dichroic mirror, delay time=[…]. The signal of each well is determined as the ratio of the emission at 665 nm to that at 615 nm. Percent displacement is determined by normalization to control wells containing DMSO (0%) or a saturating concentration of a displaceable peptide (100%). The %-effect as a function of peptide concentration is fit to a five-parameter logistic fit based on the Morrison equation to account for tight binding kinetics.
For orientation: Time-resolved FRET reads energy transfer from a long-lived donor to a nearby acceptor.
On to `CCCC[C@@H]1NC(=O)CSC[C@@H](C(=O)NCC(=O)N[C@@H](CCC(=O)O)C(=O)N[C@@H](CCC(=O)O)C(N)=O)NC(=O)[C@H]([C@@H](C)c2c[nH]c3c(OC)cccc23)NC(=O)CN(C)C(=O)[C@H](Cc2ccc(O)cc2)NC(=O)[C@H](Cc2ccc(C(=O)O)cc2)NC(=O)[C@](C)(CO)NC(=O)[C@H](Cc2c[nH]c3c(Cl)cccc23)NC(=O)[C@H](Cc2ccncc2)NC(=O)[C@H](CC(N)=O)NC(=O)[C@H](CCC(=O)O)N(C)C(=O)[C@H](Cc2c[nH]c3ncccc23)NC(=O)[C@@H]2CNCCN2C(=O)[C@H](Cc2ccncc2)NC1=O` [SEQ ID NO. 255] ({CH2CO}-[Nle][4Pal][Pip(4-aza)][Trp(7-aza)][NMeE]N[4Pal][Trp(7-Cl)][αMeS][Phe(4-COOH)]Y[Sar][Trp(βS-Me,7-OMe)]CGEE-NH2; thioether N-14), for which the IC50 is 0.7 nM and binding was characterised by a dissociation constant (Kd) of 1.01 nM. `CCCC[C@@H]1NC(=O)CSC[C@@H](C(N)=O)NC(=O)[C@H]([C@@H](C)c2c[nH]c3c(OC)cccc23)NC(=O)CN(C)C(=O)[C@H](Cc2ccc(O)cc2)NC(=O)[C@H](Cc2ccc(C(=O)O)cc2)NC(=O)[C@](C)(CO)NC(=O)[C@H](Cc2c[nH]c3c(Cl)cccc23)NC(=O)[C@H](Cc2ccncc2)NC(=O)[C@H](CC(N)=O)NC(=O)CN(CC2(O)CC2)C(=O)[C@H](Cc2c[nH]c3ccccc23)NC(=O)[C@@H]2CCCCN2C(=O)[C@H](Cc2ccncc2)NC1=O` [SEQ ID NO. 13] ({CH2CO}-[Nle][4Pal][Pip]W[X65]N[4Pal][Trp(7-Cl)][αMeS][Phe(4-COOH)]Y[Sar][Trp(βS-Me,7-OMe)]C-NH2; thioether N-14) returned a Kd of 1 nM. In other words, the single-digit nanomolar range. With `CCCCC[C@@H]1NC(=O)CSC[C@@H](C(N)=O)NC(=O)[C@](C)(Cc2c[nH]c3ccccc23)NC(=O)CN(C)C(=O)[C@H](Cc2c[nH]cn2)NC(=O)[C@H](Cc2ccc(C(=O)O)cc2)NC(=O)[C@](C)(CO)NC(=O)[C@H](Cc2ccc3ccccc3c2)NC(=O)[C@H](Cc2ccc(C(=O)O)cc2)NC(=O)[C@H](CC(N)=O)NC(=O)[C@H]2CCCN2C(=O)[C@H]([C@@H](C)c2c[nH]c3ccccc23)NC(=O)[C@H](CO)NC(=O)[C@H](Cc2ccncc2)NC1=O` [SEQ ID NO. 237] ({CH2CO}-[Ahp(2)][4Pal]S[Trp(βS-Me)][dP]N[Phe(4-COOH)][2Nal][αMeS][Phe(4-COOH)]H[Sar][αMeW]C-NH2; thioether N-14), the IC50 is 13 nM. The molecule `CCCC[C@@H]1NC(=O)[C@@H]2CC[C@@H](C2)NC(=O)[C@H]([C@@H](C)c2c[nH]c3c(OC)cccc23)NC(=O)CN(C)C(=O)[C@H](Cc2ccc(C(N)=O)cc2)NC(=O)[C@H](Cc2ccc(C(N)=O)cc2)NC(=O)[C@](C)(CO)NC(=O)[C@H](Cc2c[nH]c3c(C#N)cccc23)NC(=O)[C@H](CC23CC(C(=O)O)(C2)C3)NC(=O)[C@H](CC(N)=O)NC(=O)[C@H]2C[C@H](O)CN2C(=O)[C@H](Cc2c[nH]c3ncccc23)NC(=O)[C@@H]2CC[C@@H](O)CN2C(=O)[C@H](Cc2ccncc2)NC1=O` [SEQ ID NO. 26] (cyclo([4Pal][Pip(5R-OH)][Trp(7-aza)][dHyp]N[X69][Trp(7-CN)][αMeS][Phe(4-CONH2)][Phe(4-CONH2)][Sar][Trp(βS-Me,7-OMe)][X1][Nle])) came in with a Kd of 0.24 nM. That is a sub-nanomolar value. Regarding `CCCCC[C@@H]1NC(=O)[C@@H]2CC[C@@H](C2)NC(=O)[C@H]([C@@H](C)c2c[nH]c3c(OC)cccc23)NC(=O)CN(C)C(=O)[C@H](Cc2cccc(C(N)=O)c2)NC(=O)[C@H](Cc2ccc(C(=O)O)cc2)NC(=O)[C@](C)(CO)NC(=O)[C@H](Cc2c[nH]c3c(Br)cccc23)NC(=O)[C@H](Cc2ccc(C(=O)O)cc2)NC(=O)[C@H](CC(N)=O)NC(=O)[C@H]2C[C@H](O)CN2C(=O)[C@H](Cc2c[nH]c3ccccc23)NC(=O)[C@@H]2CNCCN2C(=O)[C@H](Cc2ccncc2)NC1=O` [SEQ ID NO. 85] (cyclo([4Pal][Pip(4-aza)]W[dHyp]N[Phe(4-COOH)][Trp(7-Br)][αMeS][Phe(4-COOH)][Phe(3-CONH2)][Sar][Trp(βS-Me,7-OMe)][X1][Ahp(2)])), binding was put at a Kd of 0.11 nM.

`CCCC[C@@H]1NC(=O)CSC[C@@H](C(N)=O)NC(=O)[C@H]([C@@H](C)c2c[nH]c3c(OC)cccc23)NC(=O)CN(C)C(=O)[C@H](Cc2ccc(O)cc2)NC(=O)[C@H](Cc2ccc(C(=O)O)cc2)NC(=O)[C@](C)(CO)NC(=O)[C@H](Cc2c[nH]c3c(Cl)cccc23)NC(=O)[C@H](Cc2ccncc2)NC(=O)[C@H](CC(N)=O)NC(=O)[C@H](CCC(=O)O)N(C)C(=O)[C@H](Cc2c[nH]c3ncccc23)NC(=O)[C@@H]2CNCCN2C(=O)[C@H](Cc2c[nH]cn2)NC1=O` [SEQ ID NO. 264] ({CH2CO}-[Nle]H[Pip(4-aza)][Trp(7-aza)][NMeE]N[4Pal][Trp(7-Cl)][αMeS][Phe(4-COOH)]Y[Sar][Trp(βS-Me,7-OMe)]C-NH2; thioether N-14) gave an IC50 of 1.49 nM. Turning to `C[C@@H](c1c[nH]c2ccccc12)[C@@H]1NC(=O)[C@H](CN)NC(=O)[C@H](Cc2ccncc2)NC(=O)[C@H](CCCCN=[N+]=[N-])NC(=O)CSC[C@@H](C(N)=O)NC(=O)[C@](C)(Cc2c[nH]c3ccccc23)NC(=O)CN(C)C(=O)[C@H](Cc2ccc(CN)cc2)NC(=O)[C@H](Cc2ccc(C(=O)O)cc2)NC(=O)[C@](C)(CO)NC(=O)[C@H](Cc2c[nH]c3c(Cl)cccc23)NC(=O)[C@H](Cc2ccncc2)NC(=O)[C@H](CC(N)=O)NC(=O)[C@H]2CCCN2C1=O` [SEQ ID NO. 245] ({CH2CO}-[Lys(N3)][4Pal][Dap][Trp(βS-Me)][dP]N[4Pal][Trp(7-Cl)][αMeS][Phe(4-COOH)][Phe(4-CH2NH2)][Sar][αMeW]C-NH2; thioether N-14), the IC50 worked out at 0.95 nM. `CCCC[C@@H]1NC(=O)CSC[C@@H](C(N)=O)NC(=O)[C@H]([C@@H](C)c2c[nH]c3c(OC)cccc23)NC(=O)[C@@H](C)N(C)C(=O)[C@H](Cc2ccc(O)cc2)NC(=O)[C@H](Cc2ccc(C(=O)O)cc2)NC(=O)[C@](C)(CO)NC(=O)[C@H](Cc2c[nH]c3c(Cl)cccc23)NC(=O)[C@H](Cc2ccncc2)NC(=O)[C@H](CC(N)=O)NC(=O)[C@H]2CCCN2C(=O)[C@H](Cc2c[nH]c3ccccc23)NC(=O)[C@@H]2CNCCN2C(=O)[C@H](Cc2ccncc2)NC1=O` [SEQ ID NO. 276] ({CH2CO}-[Nle][4Pal][Pip(4-aza)]W[dP]N[4Pal][Trp(7-Cl)][αMeS][Phe(4-COOH)]Y[dNMeA][Trp(βS-Me,7-OMe)]C-NH2; thioether N-14) returned an IC50 of 2.41 nM.

On to `CCCC[C@@H]1NC(=O)[C@@H]2CC[C@@H](C2)NC(=O)[C@H]([C@@H](C)c2c[nH]c3c(OC)cccc23)NC(=O)CN(C)C(=O)[C@H](Cc2ccc(O)cc2)NC(=O)[C@H](Cc2ccc(C(=O)O)cc2)NC(=O)[C@](C)(CO)NC(=O)[C@H](Cc2c[nH]c3c(Cl)cccc23)NC(=O)[C@H](Cc2ccc(S(=O)(=O)O)cc2)NC(=O)[C@H](CC(N)=O)NC(=O)[C@H](CCC(=O)O)N(C)C(=O)[C@H](Cc2c[nH]c3ccccc23)NC(=O)[C@@H]2CNCCN2C(=O)[C@H](Cc2ccncc2)NC1=O` [SEQ ID NO. 173] (cyclo([4Pal][Pip(4-aza)]W[NMeE]N[Phe(4-SO3H)][Trp(7-Cl)][αMeS][Phe(4-COOH)]Y[Sar][Trp(βS-Me,7-OMe)][X1][Nle])), for which the Kd came to 0.26 nM. This counts as sub-nanomolar.
